The record followed here is patent US7378246B2, “Methods and compositions for regulating adipogenesis” (The Board of Trustees of the Leland Stanford Junior …, priority 2002, dated 2008).

What all share (assay type): cell-based
In one assay the test system is 3T3-L1 preadipocytes. The experiment in a line: Adipocyte differentiation of 3T3-L1 (L1) cells, Oil Red O staining. The settings on record: for differentiation of C/EBPβ-expressing L1 cells: agent present for first 2 days of adipogenic induction, 50 μM CoCl2 or 100 μM DFO (FIG. 4B); for differentiation and/or fat accumulation of C/EBPβ-expressing L1 cells: continuous presence (6 days), 50 μM CoCl2 or 100 μM DFO, 20% O2 (FIG. 4B); for differentiation of PPARγ2-expressing L1 cells: stimulated by rosiglitazone, 50 μM CoCl2 or 100 μM DFO for 6 days (FIG. 4C); for adipocyte differentiation of L1 cells on retroviral overexpression: retroviral infection, vs vector control pLXSN, stained Day 5 (FIG. 7A). Here is the method: Based on previously described procedure (Wu et al., 1996), L1 cells were maintained in GM for 2 days after confluence. The confluent cells were treated (day 0) with differentiation medium (DM) containing 10% FBS, 10 μg/ml INS, 1 μM DEX and 0.5 mM MIX in DMEM for 2 days. Cells were then maintained in DMEM containing 10% FBS and 1 μg/ml INS, and the medium was replaced every other day.
(§1) To evaluate the effects of hypoxia on adipogenesis, cells were maintained at 20% O2 in standard incubator, 2% O2 in standard incubator or 0.01% O2 in an anaerobic chamber immediately following treatment with DM. Alternatively, CoCl2 or DFO was added to DM at indicated concentrations either during the initial stage of stimulation or for the entire course of differentiation.
(§2) For visualization of differentiated adipocytes, cells were washed with phosphate-buffered saline (PBS) and stained in 60% of the Oil Red O stock solution (0.5 g Oil Red O in 100 ml of isopropanol) for 30 min at 37° C. Cells were briefly washed in 60% isopropanol and then rinsed in distilled water for microscopic observation and photography.
Retroviruses were produced using the phoenix cell system (Baker et al., 1992; Pear et al., 1993). L1 cells at 30-50% confluence were retrovirally infected 2-3 times with 8 μg/ml Polybrene by centrifugation at 1800-2000 rpm for 1 hr, followed by overnight incubation at 32° C. For generation of stable C/EBPβ-expressing cells, L1 cells were infected with pBABEpuro or pBABEpuro-C/EBPβ (S. R. Farmer, Boston University, Boston, Mass.), followed by selection with 1 μg/ml of puromycin (Sigma). The stable cells were grown to confluence and induced to differentiate as described above. For transient infection with pBABEpuro, pBABEpuor-PPARγ2 (B. M. Spiegelman, Harvard University, Boston, Mass.), pLXSN/HA-DEC1, pLXSN-DEC1 and pLXSN-N1, L1 cells were spin-infected and induced to differentiate as described above.

For assay [1], the system named is Mouse embryonic fibroblast (MEF) cells. Nature of the assay: Adipocyte differentiation of MEFs, Oil Red O staining. The settings on record: for adipogenesis of MEF cells: DM with 5 μM rosiglitazone, CoCl2 25 μM or DFO 25 μM, stained Day 6 (FIG. 1C); for adipocyte differentiation of control-treated MEF cells: control adenovirus, same conditions as cre-treated MEFs (FIG. 2); for adipocyte differentiation of HIF-1α deficient MEF cells: cre-treated MEFs, CoCl2 up to 50 μM, DFO up to 25 μM, entire course (FIG. 2). Here is the method:
MEFs were induced to differentiate 2 days after confluence (day 0) with DM supplemented with 5 μM rosiglitazone (Alexander et al., 1998; Lehmann et al., 1995). The medium was replaced on Day 3 with DMEM plus 10% FBS, 1 μg/ml INS and 5 μM rosiglitazone, and was then changed every other day. To remove the HIF-1α gene, subconfluent culture of MEFs with HIF-1α alleles flanked by loxP sites were treated with adenovirus containing cre recombinase or control adenovirus at the multiplicity of infection (MOI) of 50 as previously described (Seagroves et al., 2001). The treated MEF cells were grown to confluence for 2 days before they were induced to differentiate as above.
as §1, §2

The test system of another assay is PPARγ2. The experiment in a line: PPARγ2 mRNA expression in L1 cells, Northern blotting. The settings on record: for PPARγ2 expression in L1 cells: 50 μM CoCl2 or 100 μM DFO during induction (FIG. 3C); for PPARγ2 expression in L1 cells with ectopic expression: retroviral infection, RNA on Day 2 after IDM stimulation (FIG. 7B). Here is the method:
Total cellular RNA was isolated with Trizol reagent (Life Technologies). The following plasmids were used for cDNA template preparations by restriction digest: MSV-C/EBPβ and MSV-C/EBPδ (S. L. McKnight, Univ. Texas Southwestern Medical Center, Dallas, Tex.), pSVsport-PPARγ2 (B. M. Spiegelman), pBS-Stra13 (P. Chambon, INSERM, Strasbourg, France). Hybridization was carried out at 65° C. for 6 to 12 hr. The radioactive blot was visualized on Storm 860 PhosphoImager (Molecular Dynamics, Sunnyvale, Calif.).

In another assay the test system is PPARγ2 promoter. The experiment in a line: PPARγ2 promoter luciferase reporter assay in NIH-3T3 cells. The settings on record: for repression of PPARγ2 promoter activity by DEC1 fragments: 0.6-kb PPARγ2 promoter luciferase, co-transfected DEC1 fragments, 0.3 μg DNA each (FIG. 6A). Here is the method:
The luciferase reporter construct pX2) under the control of the −603 to +62 PPARγ2 proximal promoter fragment (PPAR) or other deletional subclones was used as described (Tong et al., 2000). NIH-3T3 cells were transiently co-transfected with 0.3 μg each of pXP2 or PPAR and pcDNA3.1His construct expressing a DEC1 fragment using LipofectAmine Plus reagents (Life Technologies). Luciferase activities in cell lysates were measured in triplicates after 40-48 hr of incubation using Monolight 2010 Luminometer (Analytical Luminescence Laboratory, Ann Arbor, Mich.). The luciferase activity is expressed in relation to protein concentrations that vary little from well to well. Alternatively, a Renilla luciferase reporter was co-transfected as a control for transfection efficiency.
A general note: A reporter such as luciferase makes a cellular process visible.

Setting [2] is: agent for first 2 days of induction with IDM, CoCl2 50 μM, DFO 100 μM, stained Day 6 (FIG. 1B).
Where [3] appears, read: agent in treatment media throughout the course of induction (6 days).

Where a name gives a salt, the structure may show the parent alone.

Turning to `[Cl][Co][Cl]` [CoCl2, Cobalt Chloride], the L1 cell differentiation entry in the assay with 3T3-L1 preadipocytes (setting [2]) was “sufficient to prevent L1 cell differentiation”. Moreover, the L1 cell differentiation entry with 3T3-L1 preadipocytes (setting [3]) is recorded as “Inhibition of L1 cell differentiation”. Further, in the assay on 3T3-L1 preadipocytes, the “differentiation of C/EBPβ-expressing L1 cells” value is listed as “still able to differentiate into fat-laden adipocytes”, the “differentiation and/or fat accumulation of C/EBPβ-expressing L1 cells” value is recorded as “significantly reducing differentiation and/or fat accumulation” and the “differentiation of PPARγ2-expressing L1 cells” value is “majority of the PPARγ2-expressing cells differentiate into adipocytes”. In assay [1], the “adipogenesis of MEF cells” value was “suppresses adipogenesis”, the “adipocyte differentiation of control-treated MEF cells” value is “significantly represses differentiation” and the “adipocyte differentiation of HIF-1α deficient MEF cells” value is given as “continue to undergo significant adipocyte differentiation”. In the assay on PPARγ2, the “PPARγ2 expression in L1 cells” value is on record as “repressed”.

Regarding `CC(=O)N(O)CCCCCNC(=O)CCC(=O)N(O)CCCCCNC(=O)CCC(=O)N(O)CCCCCN` [DFO, deferoxamine mesylate], the L1 cell differentiation result in the assay with 3T3-L1 preadipocytes (setting [2]) was “sufficient to prevent L1 cell differentiation”. Moreover, the L1 cell differentiation entry in the assay with 3T3-L1 preadipocytes (setting [3]) is on record as “Inhibition of L1 cell differentiation”. Moreover, in the assay with 3T3-L1 preadipocytes, the “differentiation of C/EBPβ-expressing L1 cells” value was “still able to differentiate into fat-laden adipocytes”, the “differentiation and/or fat accumulation of C/EBPβ-expressing L1 cells” value is recorded as “significantly reducing differentiation and/or fat accumulation” and the “differentiation of PPARγ2-expressing L1 cells” value was “majority of the PPARγ2-expressing cells differentiate into adipocytes”. For the same molecule, in assay [1], the “adipogenesis of MEF cells” value is “suppresses adipogenesis”, the “adipocyte differentiation of control-treated MEF cells” value was “significantly represses differentiation” and the “adipocyte differentiation of HIF-1α deficient MEF cells” value is on record as “continue to undergo significant adipocyte differentiation”. Besides, the “PPARγ2 expression in L1 cells” value in the assay with PPARγ2 is recorded as “repressed”.

As to `CN(CCOc1ccc(CC2SC(=O)NC2=O)cc1)c1ccccn1` (centres unmarked) [rosiglitazone], the “MEF cells that differentiate into adipocytes” value in assay [1] (IDM supplemented with 5 μM rosiglitazone) was 15-20%.

With “DEC1: full-length DEC1 bHLH transcription repressor, expressed from pcDNA3.1-DEC1 or pLXSN-DEC1”, in the assay with 3T3-L1 preadipocytes, the “adipocyte differentiation of L1 cells on retroviral overexpression” value (shortened to “adipocyte differentiation of L1 cells”) is “nearly complete inhibition of adipocyte differentiation”. Besides, the “PPARγ2 expression in L1 cells with ectopic expression” value with PPARγ2 was “repressed”. The “repression of PPARγ2 promoter activity” value in the assay with PPARγ2 promoter (0.6-kb PPARγ2 promoter (−603 to +62) luciferase, compared to the vector control, co-transfection (FIG. 6A)) is on record as 70%. Moreover, the “repression of FLΔBrS promoter (BrS deleted)” value in the assay with PPARγ2 promoter (0.6-kb promoter with BsrGI-StuI fragment deleted (FIG. 6B)) was “no longer repressed”.

For “HA-DEC1: HA-tagged full-length DEC1 expressed from pLXSN/HA-DEC1”, the “adipocyte differentiation of L1 cells” value in the assay with 3T3-L1 preadipocytes is listed as “nearly complete inhibition of adipocyte differentiation”. Besides, the “PPARγ2 expression in L1 cells with ectopic expression” value in the assay on PPARγ2 is “repressed”.

B1: C1: C-terminal DEC1 fragment aa121-412 (protein, UniProt O14503 121-412, looked up, fragment)
chain: LQSGLQAGELSGRNVETGQEMFCSGFQTCAREVLQYLAKHENTRDLKSSQLVTHLHRVVSELLQGGTSRKPSDPAPKVMDFKEKPSSPAKGSEGPGKNCVPVIQRTFAHSSGEQSGSDTDTDSGYGGESEKGDLRSEQPCFKSDHGRRFTMGERIGAIKQESEEPPTKKNRMQLSDDEGHFTSSDLISSPFLGPHPHQPPFCLPFYLIPPSATAYLPMLEKCWYPTSVPVLYPGLNASAAALSSFMNPDKISAPLLMPQRLPSPLPAHPSVDSSVLLQALKPIPPLNLETKD
Take B1: the “repression of PPARγ2 promoter activity by DEC1 fragments” value in the assay with PPARγ2 promoter is recorded as “do not inhibit PPARγ2 promoter activity”.

B2: N1: N-terminal DEC1 fragment aa1-141 containing the bHLH domain (protein, UniProt O14503 1-141, looked up, fragment)
chain: MERIPSAQPPPACLPKAPGLEHGDLPGMYPAHMYQVYKSRRGIKRSEDSKETYKLPHRLIEKKRRDRINECIAQLKDLLPEHLKLTTLGHLEKAVVLELTLKHVKALTNLIDQQQQKIIALQSGLQAGELSGRNVETGQEM
On to B2, for which the “adipocyte differentiation of L1 cells” value in the assay on 3T3-L1 preadipocytes is given as “Significant inhibition”. In the assay on PPARγ2, the “PPARγ2 expression in L1 cells with ectopic expression” value is on record as “repressed”.

B3: C2: C-terminal DEC1 fragment aa201-412 (protein, UniProt O14503 201-412, looked up, fragment)
chain: FKEKPSSPAKGSEGPGKNCVPVIQRTFAHSSGEQSGSDTDTDSGYGGESEKGDLRSEQPCFKSDHGRRFTMGERIGAIKQESEEPPTKKNRMQLSDDEGHFTSSDLISSPFLGPHPHQPPFCLPFYLIPPSATAYLPMLEKCWYPTSVPVLYPGLNASAAALSSFMNPDKISAPLLMPQRLPSPLPAHPSVDSSVLLQALKPIPPLNLETKD
In the case of B3, the “repression of PPARγ2 promoter activity by DEC1 fragments” value in the assay with PPARγ2 promoter is reported as “do not inhibit PPARγ2 promoter activity”.
